According to patent US20240366560A1, “SMALL MOLECULE TREATMENT OF FATTY LIVER DISEASE AND HCC” (ScandiEdge Therapeutics AB, priority 2021, published 2024):

Columns and labels:
PKLR [1] = experiment: PKLR protein level by western blot in steatosis-induced HepG2, 7-day drug treatment; type: cell-based; conditions: steatosis-induced HepG2, 7 days of drug treatment, P<0.05, FIG. 2B
Method: (§1) WT HepG2 was included in this study and cultured by Roswell Park Memorial Institute (RPMI, R2405, Sigma Aldrich) 1640 Medium with 10% fetal bovine serum (FBS) and 1% penicillin-streptomycin (PS). To induce a steatosis model into WT HepG2 cells, high glucose Dulbecco's Modified Eagle Media (DMEM, D0822/D5671, Sigma-Aldrich) containing 10% FBS and 1% PS was used as medium for one week, together with 10 μg/mL insulin and 10 μM T0901317. All of cells were incubated in the incubator with 5% CO2 and 37° C. (Thermo SCIENTIFIC). Fresh medium was provided every two days.
(§2) As for drug-screening, different numbers of HepG2 cells were seeded for distinct experiments. More in details, 40,000 cells and 500,000 cells were used for 2-day-drug treatment in 96-well-plate and 6-well plate, respectively, while 80,000 cells and 300,000 cells were used for one-week drug treatment in 96-well plate and 6-well plate, respectively. Detailed drug dosages could be found in FIG. 5. Fresh medium was provided every two days.
(§3) Protein content levels were detected by western blot. After the respective treatment of drugs, the cell pellets were lysed in cell lytic M, followed by protein extraction from supernatant (10 min, 13,000r/min centrifuge). Extracted cell lysate was stored in −20° C. Proteins were quantified through Bovine albumin serum (BAS) standard curve with protein assay dye reagent (BIO-RAD). The proteins were separated by SDS-PAGE with 100v in 90 min by mini-protein TGX precast gels (4-15%, 15 wells, 15 μl/well, BIO-RAD), and then transfer to Mini PVDF transfer package through transfer system (Transfer-Turbo, BIO-RAD). After 30 min blocking with 5% skim milk in cold room (4° C.) and washing with TBST, membrane was cut by the size of interested proteins. Primary antibodies were added into the corresponding membrane sections for overnight binding. Then the membranes were washed with TBST, and the secondary antibodies were incubated for 1 h in cold room. The following antibody were used: (Goat pAb to Rb lg, ab205718, abcam; Rb pAb to beta-actin, ab8227, abcam; anti-pklr, HPA006653, SIGMA; Rb pAb to fatty acid synthase, ab99539, abcam). The bindings were imaged by immunostaining and machine (ImageQuant LAS 500). All antibodies were purchased from Abcam online, and βactin was used as global normalized protein. After measurement, the strength of signal for each protein was quantified by ImageJ. The background noise was removed, and all results were normalized by the levels of β-actin.
(§4) To further analyse the effect of these drugs on lipid accumulation via the DNL pathway, steatosis was induced to HepG2 by treating the cells with high glucose medium (DMEM), insulin and T0901317 (Hansmannel et al., 2006). […] Therefore, the effects of these two drugs on the de novo synthesis of lipids were investigated based on the steatosis-induced HepG2 model. […] Taken together, it was shown that BX-912 and JNK-IN-5A effectively alleviate the protein expression of PKLR and FASN as well as TG levels in HepG2 cell lines, and thus, it was decided to perform in vivo evaluations to test the effect of these two drugs.

FASN [2] = experiment: FASN protein level by western blot in steatosis-induced HepG2, 7-day drug treatment; type: cell-based; conditions: steatosis-induced HepG2, 7 days of drug treatment, P<0.05, FIG. 2C
Method: as §1, §2, §3, §4

[3] = tested on: genes controlling fatty acid biosynthesis and Pcsk9; conditions: in vitro (Poirier et al., 2014); cited from earlier work
PKLR [4] = experiment: PKLR protein level by western blot in HepG2, 2-day drug treatment; type: cell-based; conditions: HepG2, two days of treatment, dosages per FIG. 5, P<0.05, FIG. 2A
Method: WT HepG2 was included in this study and cultured by Roswell Park Memorial Institute (RPMI, […], Sigma Aldrich) 1640 Medium with 10% fetal bovine serum (FBS) and 1% penicillin-streptomycin (PS). To induce a steatosis model into WT HepG2 cells, high glucose Dulbecco's Modified Eagle Media (DMEM, […]/[…], Sigma-Aldrich) containing 10% FBS and 1% PS was used as medium for one week, together with 10 μg/mL insulin and 10 μM T0901317. All of cells were incubated in the incubator with 5% CO2 and 37° C. (Thermo […]). Fresh medium was provided every two days. As for drug-screening, different numbers of HepG2 cells were seeded for distinct experiments. More in details, 40,000 cells and 500,000 cells were used for 2-day-drug treatment in 96-well-plate and 6-well plate, respectively, while 80,000 cells and 300,000 cells were used for one-week drug treatment in 96-well plate and 6-well plate, respectively. […] Fresh medium was provided every two days. Protein content levels were detected by western blot. After the respective treatment of drugs, the cell pellets were lysed in cell lytic M, followed by protein extraction from supernatant (10 min, 13,000r/min centrifuge). Extracted cell lysate was stored in -20° C. Proteins were quantified through Bovine albumin serum (BAS) standard curve with protein assay dye reagent (BIO-RAD). The proteins were separated by SDS-PAGE with 100v in 90 min by mini-protein TGX precast gels (4-15%, 15 wells, 15 μl/well, BIO-RAD), and then transfer to Mini PVDF transfer package through transfer system (Transfer-Turbo, BIO-RAD). After 30 min blocking with 5% skim milk in cold room (4° C.) and washing with TBST, membrane was cut by the size of interested proteins. Primary antibodies were added into the corresponding membrane sections for overnight binding. Then the membranes were washed with TBST, and the secondary antibodies were incubated for 1 h in cold room. The following antibody were used: (Goat pAb to Rb lg, ab205718, abcam; Rb pAb to beta-actin, ab8227, abcam; […]; Rb pAb to fatty acid synthase, ab99539, abcam). The bindings were imaged by immunostaining and machine (ImageQuant LAS 500). All antibodies were purchased from Abcam online, and βactin was used as global normalized protein. After measurement, the strength of signal for each protein was quantified by ImageJ. The background noise was removed, and all results were normalized by the levels of β-actin. To determine the inhibitory effects of these drugs on the expression level of PKLR, HepG2 was selected as the in vitro model for coherence. […] HepG2 cells were treated with these drugs for two days with different dosages due to their potential cellular toxicities (FIG. 5), and the PKLR protein level was the measured by western blotting. The level of protein expression of PKLR of the drug-treated groups was compared to that of the Ctrl group after normalizing with β-actin.

FASN [5] = conditions: high-glucose-cultured HepG2 cell model (Hosseini et al., 2020); cited from earlier work

Row | Compound | protein expression level of PKLR (PKLR [1]) | protein expression level of FASN (FASN [2]) | expression level of a list of genes controlling fatty acid biosynthesis and Pcsk9 [3] | protein expression of PKLR vs Ctrl, normalized with β-actin (PKLR [4]) | expression level of Fasn (FASN [5])
1 | CC(C)(C)c1nc(-c2cccc(NS(=O)(=O)c3c(F)cccc3F)c2F)c(-c2ccnc(N)n2)s1 [Dabrafenib] | significantly decreased | significantly reduced | – | – | –
2 | PF-477736 | significantly decreased | significantly reduced | – | – | –
3 | Nc1ncn([C@@H]2O[C@H](CO)[C@@H](O)[C@H]2O)c(=O)n1 [Azacitidine] | significantly decreased | significantly reduced | reduces | significantly down-regulated | decreases
4 | O=C(NC(NC(=S)Nc1ccc(F)c([N+](=O)[O-])c1)C(Cl)(Cl)Cl)C(c1ccccc1)c1ccccc1 (stereo not drawn) [CGK-733] | – | – | – | significantly down-regulated | –
5 | N#CC(c1ccnc(NCCc2cccnc2)n1)c1nc2ccccc2s1 (stereo not drawn) [AS-601245] | significantly decreased | – | – | significantly down-regulated | –
6 | CCCS(=O)(=O)Nc1ccc(F)c(C(=O)c2c[nH]c3ncc(Cl)cc23)c1F [PLX-4720] | significantly decreased | significantly reduced | – | significantly down-regulated | –
